Molecular target: T1, GCN4-Kar3Cik1 (Kar3Cik1) (Saccharomyces cerevisiae, UniProt P17119)
T1 sequence (P17119 353-729): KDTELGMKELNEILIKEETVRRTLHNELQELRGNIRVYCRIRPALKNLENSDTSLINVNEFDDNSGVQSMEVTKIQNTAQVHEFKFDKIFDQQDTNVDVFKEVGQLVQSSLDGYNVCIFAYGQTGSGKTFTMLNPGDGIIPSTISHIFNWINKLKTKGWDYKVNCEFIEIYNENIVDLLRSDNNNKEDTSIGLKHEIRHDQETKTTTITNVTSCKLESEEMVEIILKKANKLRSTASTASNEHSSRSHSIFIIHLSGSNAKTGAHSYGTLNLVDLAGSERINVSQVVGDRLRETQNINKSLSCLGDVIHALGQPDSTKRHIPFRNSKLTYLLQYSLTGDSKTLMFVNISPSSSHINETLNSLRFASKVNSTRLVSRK
T1 sequence (Q01649 344-594 partner): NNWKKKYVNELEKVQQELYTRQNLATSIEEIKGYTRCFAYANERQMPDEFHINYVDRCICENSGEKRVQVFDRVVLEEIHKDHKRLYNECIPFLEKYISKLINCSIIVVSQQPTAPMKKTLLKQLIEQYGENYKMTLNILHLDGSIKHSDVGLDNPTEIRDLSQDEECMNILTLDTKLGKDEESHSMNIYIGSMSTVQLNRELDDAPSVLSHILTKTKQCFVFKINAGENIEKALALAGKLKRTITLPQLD
Assay: cryo-EM and unidirectional metal shadowing of microtubule decoration
Format: binding
Settings: 1 mM ADP; bovine brain microtubules; ATPase buffer pH 7.2

Nc1ncnc2c1ncn2[C@@H]1O[C@H](COP(=O)(O)OP(=O)(O)O)[C@@H](O)[C@H]1O [ADP]
cryo-EM and unidirectional metal shadowing of microtubule decoration: Excess ADP significantly lowered the microtubule-binding affinity of Kar3Cik1 in our experiments

From paper PMC3851574 (Journal of structural biology, 2013)
